Assay results reported in US9745311B2, “Substituted pyrrolo[2,3-b]pyrazines as FGFR inhibitors” (Incyte Corporation, priority 2012, dated 2017).
Where two headings read alike, the source gives them in different places.

Key:
FGFR3 enzyme (Millipore) = FGFR3 enzyme (Millipore) (Homo sapiens (Human), UniProt P22607); conditions: read-out: FGFR3 IC50, ATP 140 μM
FGFR1 = FGFR1 (Homo sapiens (Human), UniProt P11362); assay: FGFR Enzymatic Assay (FGFR1); assay type: biochemical; conditions: enzyme 0.02 nM, ATP 210 μM
FGFR1, sequence (P11362 22-822): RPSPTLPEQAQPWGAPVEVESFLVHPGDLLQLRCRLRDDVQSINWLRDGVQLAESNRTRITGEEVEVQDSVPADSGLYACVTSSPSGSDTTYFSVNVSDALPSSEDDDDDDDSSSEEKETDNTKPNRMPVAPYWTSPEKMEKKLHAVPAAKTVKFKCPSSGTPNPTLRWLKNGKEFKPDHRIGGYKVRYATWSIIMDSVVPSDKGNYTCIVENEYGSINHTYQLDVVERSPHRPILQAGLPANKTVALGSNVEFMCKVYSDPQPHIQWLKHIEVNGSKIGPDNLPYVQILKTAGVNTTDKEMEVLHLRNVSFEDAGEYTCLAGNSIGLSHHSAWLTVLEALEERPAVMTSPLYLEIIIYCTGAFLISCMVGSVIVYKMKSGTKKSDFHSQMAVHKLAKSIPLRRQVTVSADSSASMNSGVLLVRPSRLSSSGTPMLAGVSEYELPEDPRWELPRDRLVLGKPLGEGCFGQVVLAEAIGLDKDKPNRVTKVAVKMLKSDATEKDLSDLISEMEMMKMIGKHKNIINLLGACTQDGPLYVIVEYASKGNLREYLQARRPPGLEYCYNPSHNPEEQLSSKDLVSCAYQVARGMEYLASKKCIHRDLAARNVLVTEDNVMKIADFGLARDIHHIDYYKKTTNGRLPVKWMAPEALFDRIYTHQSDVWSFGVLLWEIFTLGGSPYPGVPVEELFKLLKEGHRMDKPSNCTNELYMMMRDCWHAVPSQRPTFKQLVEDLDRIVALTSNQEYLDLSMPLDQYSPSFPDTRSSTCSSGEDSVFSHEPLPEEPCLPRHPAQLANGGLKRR
Method: The inhibitor potency of compounds was measured in an enzyme assay that measures peptide phosphorylation using FRET measurements to detect product formation. Inhibitors were serially diluted in DMSO and a volume of 0.5 μL was transferred to the wells of a 384-well plate. For FGFR3, a 10 μL volume of FGFR3 enzyme (Millipore) diluted in assay buffer (50 mM HEPES, 10 mM MgCl2, 1 mM EGTA, 0.01% Tween-20, 5 mM DTT, pH 7.5) was added to the plate and pre-incubated for 5-10 minutes. Appropriate controls (enzyme blank and enzyme with no inhibitor) were included on the plate. […] The plate was incubated at 25° C. for 1 hr. […] The plate was allowed to equilibrate for ˜1 hr before scanning the wells on a PheraStar plate reader.
GraphPad prism3 was used to analyze the data. The IC50 values were derived by fitting the data to the equation for a sigmoidal dose-response with a variable slope. Y=Bottom+(Top−Bottom)/(1+10^((Log IC50−X)*HillSlope)) where X is the logarithm of concentration and Y is the response.

FGFR2 = FGFR2 (Homo sapiens (Human), UniProt P21802); assay: FGFR Enzymatic Assay (FGFR2); assay type: biochemical;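 also: FRET read-out of peptide phosphorylation by the purified kinase, with enzyme-free blank and uninhibited enzyme as controls, potency from a variable-slope sigmoidal dose-response fit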
FGFR2, sequence (P21802 22-821): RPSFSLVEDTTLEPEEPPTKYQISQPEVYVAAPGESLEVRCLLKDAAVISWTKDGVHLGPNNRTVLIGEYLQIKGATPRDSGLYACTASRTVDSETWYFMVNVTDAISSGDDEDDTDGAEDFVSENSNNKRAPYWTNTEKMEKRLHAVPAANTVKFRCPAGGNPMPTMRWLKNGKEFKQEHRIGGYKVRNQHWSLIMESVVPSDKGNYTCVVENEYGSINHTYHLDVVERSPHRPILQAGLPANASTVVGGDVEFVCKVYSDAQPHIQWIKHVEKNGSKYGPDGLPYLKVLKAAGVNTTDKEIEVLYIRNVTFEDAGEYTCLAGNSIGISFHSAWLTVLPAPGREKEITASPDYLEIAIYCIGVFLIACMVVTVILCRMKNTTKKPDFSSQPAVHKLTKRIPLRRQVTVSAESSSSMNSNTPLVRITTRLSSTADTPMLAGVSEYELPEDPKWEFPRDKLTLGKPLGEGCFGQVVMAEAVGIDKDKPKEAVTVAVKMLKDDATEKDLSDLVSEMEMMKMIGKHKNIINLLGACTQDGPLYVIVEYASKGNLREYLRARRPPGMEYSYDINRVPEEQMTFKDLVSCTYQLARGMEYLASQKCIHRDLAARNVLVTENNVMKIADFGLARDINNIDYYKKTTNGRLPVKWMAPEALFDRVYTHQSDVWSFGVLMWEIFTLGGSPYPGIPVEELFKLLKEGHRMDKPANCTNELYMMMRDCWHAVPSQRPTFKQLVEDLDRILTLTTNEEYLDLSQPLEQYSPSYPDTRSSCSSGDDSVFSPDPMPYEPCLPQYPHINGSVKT

[1] = enzyme 0.01 nM, ATP 100 μM, read-out: FGFR2 IC50

FGFR3 enzyme (Millipore), sequence (P22607 23-806): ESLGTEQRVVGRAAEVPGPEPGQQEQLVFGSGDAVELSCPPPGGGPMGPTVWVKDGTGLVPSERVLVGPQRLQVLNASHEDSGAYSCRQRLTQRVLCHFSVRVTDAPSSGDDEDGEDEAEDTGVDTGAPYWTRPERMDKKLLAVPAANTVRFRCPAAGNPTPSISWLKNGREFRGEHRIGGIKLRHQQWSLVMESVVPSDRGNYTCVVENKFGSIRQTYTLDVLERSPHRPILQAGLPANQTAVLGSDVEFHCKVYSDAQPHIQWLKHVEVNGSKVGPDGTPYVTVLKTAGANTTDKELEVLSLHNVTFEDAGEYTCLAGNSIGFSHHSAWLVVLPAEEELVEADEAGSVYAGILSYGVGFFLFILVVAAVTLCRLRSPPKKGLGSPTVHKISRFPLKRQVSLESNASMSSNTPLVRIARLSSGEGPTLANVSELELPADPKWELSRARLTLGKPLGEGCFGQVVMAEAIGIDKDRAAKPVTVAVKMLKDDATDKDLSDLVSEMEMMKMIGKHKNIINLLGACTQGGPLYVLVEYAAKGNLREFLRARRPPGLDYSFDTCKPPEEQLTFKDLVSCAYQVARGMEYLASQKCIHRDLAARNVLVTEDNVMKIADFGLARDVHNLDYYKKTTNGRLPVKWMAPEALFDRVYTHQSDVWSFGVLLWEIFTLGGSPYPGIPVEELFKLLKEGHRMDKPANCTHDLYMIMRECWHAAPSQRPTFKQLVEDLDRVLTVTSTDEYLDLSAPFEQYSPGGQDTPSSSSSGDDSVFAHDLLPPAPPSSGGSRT

IC50 (FGFR3 enzyme (Millipore); class symbols) [nM] | IC50 (FGFR1) [nM] | IC50 (FGFR2; [1]) [nM] | Compound | IC50 (FGFR3 enzyme (Millipore); numeric bounds) [nM] | IC50 (FGFR2) [nM]
< 100 | < 100 | < 100 | COc1cc(CCc2cnc3[nH]c(-c4ccc(C5CCN(C)CC5)cc4)cc3n2)cc(OC)c1 [Example 22, 2-[2-(3,5-dimethoxyphenyl)ethyl]-6-[4-(1-methylpiperidin-4-yl)phenyl]-5H-pyrrolo[2,3-b]pyrazine] | – | –
– | – | 500 to 2700 | COc1cc(CCc2cnc3[nH]c(C(=O)N(C)C)cc3n2)cc(OC)c1 [Example 26, 2-[2-(3,5-dimethoxyphenyl)ethyl]-N,N-dimethyl-5H-pyrrolo[2,3-b]pyrazine-6-carboxamide] | > 2000 | –
< 100 | < 100 | < 100 | COc1cc(CCc2cnc3[nH]c(-c4cnn(CCN5CCOCC5)c4)cc3n2)cc(OC)c1 [Example 31, 2-[2-(3,5-dimethoxyphenyl)ethyl]-6-[1-(2-morpholin-4-ylethyl)-1H-pyrazol-4-yl]-5H-pyrrolo[2,3-b]pyrazine] | – | –
< 100 | < 100 | < 100 | COc1cc(CCc2cnc3[nH]c(-c4cnn(C5CCOCC5)c4)cc3n2)cc(OC)c1 [Example 32, 2-[2-(3,5-dimethoxyphenyl)ethyl]-6-[1-(tetrahydro-2H-pyran-4-yl)-1H-pyrazol-4-yl]-5H-pyrrolo[2,3-b]pyrazine] | – | –
< 100 | < 100 | < 100 | COc1cc(CCc2cnc3[nH]c(-c4cnn(CC(C)(C)O)c4)cc3n2)cc(OC)c1 [Example 33, 1-(4-{2-[2-(3,5-dimethoxyphenyl)ethyl]-5H-pyrrolo[2,3-b]pyrazin-6-yl}-1H-pyrazol-1-yl)-2-methylpropan-2-ol] | – | –
< 100 | < 100 | < 100 | COc1cc(CCc2cnc3[nH]c(-c4cnn(CCN(C)C)c4)cc3n2)cc(OC)c1 [Example 34, 2-(4-{2-[2-(3,5-dimethoxyphenyl)ethyl]-5H-pyrrolo[2,3-b]pyrazin-6-yl}-1H-pyrazol-1-yl)-N,N-dimethylethanamine] | – | –
< 100 | < 100 | < 100 | COc1cc(CCc2cnc3[nH]c(-c4cnn(C(CC#N)C5CCCC5)c4)cc3n2)cc(OC)c1 (stereo not shown) [Example 35, 3-cyclopentyl-3-(4-{2-[2-(3,5-dimethoxyphenyl)ethyl]-5H-pyrrolo[2,3-b]pyrazin-6-yl}-1H-pyrazol-1-yl)propanenitrile] | – | –
< 100 | < 100 | < 100 | COc1cc(CCc2cnc3[nH]c(-c4cnn(C(C)CC#N)c4)cc3n2)cc(OC)c1 (stereo not shown) [Example 36, 3-(4-(2-(3,5-dimethoxyphenethyl)-5H-pyrrolo[2,3-b]pyrazin-6-yl)-1H-pyrazol-1-l)butanenitrile] | – | –
< 100 | < 100 | < 100 | COc1cc(CCc2cnc3[nH]c(-c4cnn(C[C@H](C)O)c4)cc3n2)cc(OC)c1 [Example 39, (2S)-1-(4-{2-[2-(3,5-dimethoxyphenyl)ethyl]-5H-pyrrolo[2,3-b]pyrazin-6-yl}-1H-pyrazol-1-yl)propan-2-ol] | – | –
< 100 | < 100 | < 100 | COc1cc(CCc2cnc3[nH]c(-c4cnn(CCN5CCC(O)CC5)c4)cc3n2)cc(OC)c1 [Example 40, 1-[2-(4-{2-[2-(3,5-dimethoxyphenyl)ethyl]-5H-pyrrolo[2,3-b]pyrazin-6-yl}-1H-pyrazol-1-yl)ethyl]piperidin-4-ol] | – | –
< 100 | < 100 | < 100 | COc1cc(CCc2cnc3[nH]c(-c4cnn(CCN5CCCCC5)c4)cc3n2)cc(OC)c1 [Example 41, 2-[2-(3,5-dimethoxyphenyl)ethyl]-6-[1-(2-piperidin-1-ylethyl)-1H-pyrazol-4-yl]-5H-pyrrolo[2,3-b]pyrazine] | – | –
< 100 | < 100 | < 100 | COc1cc(CCc2cnc3[nH]c(-c4cnn(CC(=O)N5CCN(C)CC5)c4)cc3n2)cc(OC)c1 [Example 44, 2-(4-(2-(3,5-dimethoxyphenethyl)-5H-pyrrolo[2,3-b]pyrazin-6-yl)-1H-pyrazol-1-yl)-1-(4-methylpiperazin-1-yl)ethanone] | – | –
< 100 | < 100 | < 100 | COc1cc(CCc2cnc3[nH]c(-c4ccc(N5CCN(C)CC5)cc4)c(C#N)c3n2)cc(OC)c1 [Example 45, 2-[2-(3,5-dimethoxyphenyl)ethyl]-6-[4-(4-methylpiperazin-1-yl)phenyl]-5H-pyrrolo[2,3-b]pyrazine-7-carbonitrile] | – | –
< 100 | < 100 | < 100 | COc1cc(CCc2cnc3[nH]c(-c4ccc(N5CCN(C)CC5)cc4)c(Br)c3n2)cc(OC)c1 [Example 46, 7-bromo-2-[2-(3,5-dimethoxyphenyl)ethyl]-6-[4-(4-methylpiperazin-1-yl)phenyl]-5H-pyrrolo[2,3-b]pyrazine] | – | –
< 100 | < 100 | < 100 | COc1cc(CCc2cnc3[nH]c(-c4ccc(N5CCN(C)CC5)cc4)c(Cl)c3n2)cc(OC)c1 [Example 47, 7-chloro-2-[2-(3,5-dimethoxyphenyl)ethyl]-6-[4-(4-methylpiperazin-1-yl)phenyl]-5H-pyrrolo[2,3-b]pyrazine] | – | –
– | < 100 | < 100 | COc1cc(CCc2cnc3[nH]c(-c4ccc(F)c(C#N)c4)cc3n2)cc(OC)c1 [Example 65, 5-(2-(3,5-Dimethoxyphenethyl)-5H-pyrrolo[2,3-b]pyrazin-6-yl)-2-fluorobenzonitrile] | – | –
– | < 100 | < 100 | COc1cc(CCc2cnc3[nH]c(-c4ccc(N5CCN(C)CC5)c(C#N)c4)cc3n2)cc(OC)c1 [Example 72, 5-(2-(3,5-Dimethoxyphenethyl)-5H-pyrrolo[2,3-b]pyrazin-6-yl)-2-(4-methylpiperazin-1-yl)benzonitrile] | – | –

More lines, now with the values behind:

Compound | IC50 (FGFR3 enzyme (Millipore); class symbols) [nM] | IC50 (FGFR1) [nM] | IC50 (FGFR2; [1]) [nM] | IC50 (FGFR3 enzyme (Millipore); numeric bounds) [nM] | IC50 (FGFR2) [nM]
COc1cc(CCc2cnc3[nH]c(-c4ccc(N5CCN(C)CC5)cc4)cc3n2)cc(OC)c1 [Example 1, 2-[2-(3,5-dimethoxyphenyl)ethyl]-6-[4-(4-methylpiperazin-1-yl)phenyl]-5H-pyrrolo[2,3-b]pyrazine] | < 100 | < 100 | < 100 | – | –
CCN1CCN(c2ccc(-c3cc4nc(CCc5cc(OC)cc(OC)c5)cnc4[nH]3)cc2)CC1 [Example 2, 2-[2-(3,5-dimethoxyphenyl)ethyl]-6-[4-(4-ethylpiperazin-1-yl)phenyl]-5H-pyrrolo[2,3-b]pyrazine] | < 100 | < 100 | < 100 | – | –
COc1cc(CCc2cnc3[nH]c(-c4ccccc4)cc3n2)cc(OC)c1 [Example 3, 2-(3,5-dimethoxyphenethyl)-6-phenyl-5H-pyrrolo[2,3-b]pyrazine] | < 100 | < 100 | < 100 | – | –
COc1ccc(-c2cc3nc(CCc4cc(OC)cc(OC)c4)cnc3[nH]2)cc1 [Example 5, 2-[2-(3,5-dimethoxyphenyl)ethyl]-6-(4-methoxyphenyl)-5H-pyrrolo[2,3-b]pyrazine] | < 100 | < 100 | < 100 | – | –
COc1cc(CCc2cnc3[nH]c(-c4ccc(CN5CCCCC5)cc4)cc3n2)cc(OC)c1 [Example 11, 2-[2-(3,5-dimethoxyphenyl)ethyl]-6-[4-(piperidin-1-ylmethyl)phenyl]-5H-pyrrolo[2,3-b]pyrazine] | < 100 | < 100 | < 100 | – | –
COCc1ccc(-c2cc3nc(CCc4cc(OC)cc(OC)c4)cnc3[nH]2)cc1 [Example 12, 2-[2-(3,5-dimethoxyphenyl)ethyl]-6-[4-(methoxymethyl)phenyl]-5H-pyrrolo[2,3-b]pyrazine] | < 100 | < 100 | < 100 | – | –
COc1cc(CCc2cnc3[nH]c(-c4ccc(CO)cc4)cc3n2)cc(OC)c1 [Example 13, (4-{2-[2-(3,5-dimethoxyphenyl)ethyl]-5H-pyrrolo[2,3-b]pyrazin-6-yl}phenyl)methanol] | < 100 | < 100 | < 100 | – | –
COc1cc(CCc2cnc3[nH]c(-c4ccc(C(=O)O)cc4)cc3n2)cc(OC)c1 [Example 15, 4-{2-[2-(3,5-dimethoxyphenyl)ethyl]-5H-pyrrolo[2,3-b]pyrazin-6-yl}benzoic acid] | < 100 | < 100 | < 100 | – | –
COc1cc(CCc2cnc3[nH]c(-c4cnc(N(C)C)nc4)cc3n2)cc(OC)c1 [Example 20, 5-{2-[2-(3,5-dimethoxyphenyl)ethyl]-5H-pyrrolo[2,3-b]pyrazin-6-yl}-N,N-dimethylpyrimidin-2-amine] | – | < 100 | – | > 1000 | 100 to 500
COc1cc(CCc2cnc3[nH]c(-c4ccc5c(c4)OCO5)cc3n2)cc(OC)c1 [Example 21, 6-(1,3-benzodioxol-5-yl)-2-[2-(3,5-dimethoxyphenyl)ethyl]-5H-pyrrolo[2,3-b]pyrazine] | – | – | – | > 2000 | –
COc1cc(CCc2cnc3[nH]c(C4CCN(C)CC4)cc3n2)cc(OC)c1 [Example 24, 2-[2-(3,5-dimethoxyphenyl)ethyl]-6-(1-methylpiperidin-4-yl)-5H-pyrrolo[2,3-b]pyrazine] | – | – | – | > 2000 | –
CNC(=O)c1cc2nc(CCc3cc(OC)cc(OC)c3)cnc2[nH]1 [Example 25, 2-[2-(3,5-dimethoxyphenyl)ethyl]-N-methyl-5H-pyrrolo[2,3-b]pyrazine-6-carboxamide] | – | – | – | > 2000 | –
CCN(CC)CC#Cc1cc2nc(CCc3cc(OC)cc(OC)c3)cnc2[nH]1 [Example 27, 3-{2-[2-(3,5-dimethoxyphenyl)ethyl]-5H-pyrrolo[2,3-b]pyrazin-6-yl}-N,N-diethylprop-2-yn-1-amine] | – | < 100 | – | > 2000 | 100 to 500
CCN(CC)CCCc1cc2nc(CCc3cc(OC)cc(OC)c3)cnc2[nH]1 [Example 28, 3-{2-[2-(3,5-dimethoxyphenyl)ethyl]-5H-pyrrolo[2,3-b]pyrazin-6-yl}-N,N-diethylpropan-1-amine] | – | – | – | > 2000 | –
